Assay results taken from patent US20110190137A1, “METHOD TO INHIBIT ETHYLENE RESPONSES IN PLANTS” (priority 2003, published 2011).

Each molecule was assayed on ethylene-induced epinasty in Patio variety tomato plants (assay: Tomato epinasty test, spray application treatment). Conditions: spray 10 ppm in 10% acetone/90% water, 0.05% Silwett L-77; 10 ppm ethylene; scale 0 to 10 (10 = complete protection).
Assay type: in vivo
Protocol: (§1) Objective: The test procedure is designed to determine the ability of an experimental compound to block the epinastic growth response induced by ethylene in tomato plants when the experimental compound is administered either as a volatile gas or as a component of a spray solution.
(§2) Treatment chambers are of an appropriate size for the test plants and are airtight. Each is fitted with a reusable septum to be used for injection of ethylene. Test plants are Patio variety tomato seedlings planted two plants per three inch square plastic pot.
Spray application treatment entails using a DeVilbiss atomizer to completely cover all foliage and stems of two pots of Patio var. tomato plants with the appropriate amount of experimental compound dissolved in 10% acetone/90% water with 0.05% Silwett L-77 surfactant. Plants are air-dried in a drying hood for four hours then transferred to a 4.8 L polystyrene chamber which is sealed.
Ethylene gas equal to 10 ppm v/v final concentration is injected into the sealed chamber. Sixteen hours later the chambers are opened in an exhaust hood, allowed to air and the plants scored visually for the degree of protection against ethylene-induced epinasty conferred by the experimental compound when compared to ethylene treated and untreated controls on a scale of 0 to 10. A rating of 10 means complete protection. A rating of 0 means no protection from the effects of ethylene.
“1-(1-Methyl-2-pyrrolecarbonyloxypropyl)-cyclopropene [Compound 59]” was tested, and the “Spray @10 ppm: visual rating of protection against ethylene-induced epinasty” value (shortened to “Spray @10 ppm: visual rating”) was 4. In the case of “1-((2-Carboxy-N-morpholino)ethyl)-cyclopropene [Compound 15]”, the “Spray @10 ppm: visual rating” value is reported as 0. `Clc1ccc(CC2=CC2)cc1` [Compound 1, 1-Chloro-4-cycloprop-1-enylmethyl-benzene] was tested, and the “Spray @10 ppm: visual rating” value was 10. `C1=C(Cc2cccs2)C1` [Compound 2, 1-(2-Thienyl)methyl-cyclopropene] was tested, and the “Spray @10 ppm: visual rating” value was 7. With `C1=C(CCCC2OCCCO2)C1` [Compound 3, 2-(3-Cycloprop-1-enyl-propyl)-[1,3]dioxane] the “Spray @10 ppm: visual rating” value was 0. With `C[Si](C)(CCCCCCC1=CC1)c1ccccc1` [Compound 4, 1-(6-(Phenyldimethylsilyl)-hexyl)-cyclopropene] the “Spray @10 ppm: visual rating” value was 10. In the case of `CC(C)(C1=CC1)c1ccccc1` [Compound 5, 1-(α,α-dimethylbenzyl)-cyclopropene], the “Spray @10 ppm: visual rating” value is reported as 2. For `CC1(c2ccccc2)C=C1` [Compound 6, 3-Methyl-3-phenylcyclopropene], the “Spray @10 ppm: visual rating” value was 1. In the case of `CC1(COc2ccccc2)C=C1` [Compound 7, 3-Methyl-3-Phenoxymethylcycloprop-2-ene], the “Spray @10 ppm: visual rating” value is reported as 2. With `CC1=C(Cc2ccccc2)C1` [Compound 8, 1-methyl-2-benzylcyclopropene] the “Spray @10 ppm: visual rating” value was 0. With `Clc1ccc(SCCC2=CC2)cc1` [Compound 9, 1-(2-(4-Chlorophenylthio)ethyl)cyclopropene] the “Spray @10 ppm: visual rating” value was 10. With `O=S(=O)(OCCC1=CC1)c1ccccc1` [Compound 10, 2-(2-Benzenesulfonyloxyethyl)-cyclopropene] the “Spray @10 ppm: visual rating” value was 10. In the case of `CCC1=C(n2cc(Br)cn2)C1` [Compound 11, 2-(1-(4-Bromopyrazole))-1-ethylcyclopropene], the “Spray @10 ppm: visual rating” value is reported as 0. With `C1=C(CCCCCCCn2ccnc2)C1` [Compound 12, 7-(1-Imidazole)-1-heptylcyclopropene] the “Spray @10 ppm: visual rating” value was 3.5. `C1=C(CCCCCCCN(c2ccccc2)c2ccccc2)C1` [Compound 13, 7-(diphenylamino)-1-heptylcyclopropene] was tested, and the “Spray @10 ppm: visual rating” value was 10. In the case of `COc1ccc(OCC2(C)C=C2)cc1` [Compound 16], the “Spray @10 ppm: visual rating” value is reported as 4.5. For `C1=C(Cc2ccccc2)C1` [Compound 17], the “Spray @10 ppm: visual rating” value was 2. For `C1=C(CCc2ccccc2)C1` [Compound 18], the “Spray @10 ppm: visual rating” value was 6. For `CC1(CCc2ccccc2)C=C1` [Compound 19], the “Spray @10 ppm: visual rating” value was 2. In the case of `CC1(Cc2ccccc2)C=C1` [Compound 20], the “Spray @10 ppm: visual rating” value is reported as 0. For `C1=C(CCC2CCCCC2)C1` [Compound 21], the “Spray @10 ppm: visual rating” value was 10. With `C1=C(CC2CCCCCC2)C1` [Compound 22] the “Spray @10 ppm: visual rating” value was 10. For `C1=C(CC2CCCCC2)C1` [Compound 23], the “Spray @10 ppm: visual rating” value was 10. With `Cc1ccc(CC2=CC2)cc1` [Compound 24] the “Spray @10 ppm: visual rating” value was 10. With `C1=C(CCCc2ccccc2)C1` [Compound 25] the “Spray @10 ppm: visual rating” value was 10. In the case of `COc1ccccc1CC1=CC1` [Compound 26], the “Spray @10 ppm: visual rating” value is reported as 5. `C1=C(CCCCc2ccccc2)C1` [Compound 27] was tested, and the “Spray @10 ppm: visual rating” value was 10. `Clc1ccc(CCC2=CC2)cc1` [Compound 28] was tested, and the “Spray @10 ppm: visual rating” value was 8. `Cc1cccc(CC2=CC2)c1` [Compound 29] was tested, and the “Spray @10 ppm: visual rating” value was 10.

These molecules were tested on ethylene-induced epinasty in Patio variety tomato plants (assay: Tomato epinasty test, volatile gas treatment). Conditions: gas 10 ppm v/v; 10 ppm ethylene; scale 0 to 10 (10 = complete protection).
Assay type: in vivo
Protocol: as §1, §2
Volatile gas treatment entails placing two pots of Patio var. tomatoes into a polystyrene 4.8 L volume treatment chamber along with one-half (upper or lower section) of a 50×9 mm plastic Petri dish containing a Gelman filter pad. The appropriate amount of experimental compound, dissolved in 1.0 ml acetone, is pipetted onto the filter pad and the chamber immediately sealed. Four hours later ethylene gas equal to 10 ppm v/v final concentration is injected into the sealed chamber. Sixteen hours later the chambers are opened in an exhaust hood, allowed to air and the plants scored visually for the degree of protection against ethylene-induced epinasty conferred by the experimental compound when compared to ethylene treated and untreated controls on a scale of 0 to 10. A rating of 10 means complete protection. A rating of 0 means no protection from the effects of ethylene. Gas treatment concentrations are volume/volume.
“1-(1-Methyl-2-pyrrolecarbonyloxypropyl)-cyclopropene [Compound 59]” was tested, and the “Gas @ 10 ppm: visual rating of protection against ethylene-induced epinasty” value (“Gas @ 10 ppm: visual rating” below) was 3. With “1-((2-Carboxy-N-morpholino)ethyl)-cyclopropene [Compound 15]” the “Gas @ 10 ppm: visual rating” value was 10. With `Clc1ccc(CC2=CC2)cc1` [Compound 1, 1-Chloro-4-cycloprop-1-enylmethyl-benzene] the “Gas @ 10 ppm: visual rating” value was 10. In the case of `C1=C(Cc2cccs2)C1` [Compound 2, 1-(2-Thienyl)methyl-cyclopropene], the “Gas @ 10 ppm: visual rating” value is reported as 10. For `C1=C(CCCC2OCCCO2)C1` [Compound 3, 2-(3-Cycloprop-1-enyl-propyl)-[1,3]dioxane], the “Gas @ 10 ppm: visual rating” value was 8. With `C[Si](C)(CCCCCCC1=CC1)c1ccccc1` [Compound 4, 1-(6-(Phenyldimethylsilyl)-hexyl)-cyclopropene] the “Gas @ 10 ppm: visual rating” value was 4. `CC(C)(C1=CC1)c1ccccc1` [Compound 5, 1-(α,α-dimethylbenzyl)-cyclopropene] was tested, and the “Gas @ 10 ppm: visual rating” value was 5. With `CC1(c2ccccc2)C=C1` [Compound 6, 3-Methyl-3-phenylcyclopropene] the “Gas @ 10 ppm: visual rating” value was 2.5. `CC1(COc2ccccc2)C=C1` [Compound 7, 3-Methyl-3-Phenoxymethylcycloprop-2-ene] was tested, and the “Gas @ 10 ppm: visual rating” value was 4. `CC1=C(Cc2ccccc2)C1` [Compound 8, 1-methyl-2-benzylcyclopropene] was tested, and the “Gas @ 10 ppm: visual rating” value was 0. For `Clc1ccc(SCCC2=CC2)cc1` [Compound 9, 1-(2-(4-Chlorophenylthio)ethyl)cyclopropene], the “Gas @ 10 ppm: visual rating” value was 10. For `O=S(=O)(OCCC1=CC1)c1ccccc1` [Compound 10, 2-(2-Benzenesulfonyloxyethyl)-cyclopropene], the “Gas @ 10 ppm: visual rating” value was 10. For `CCC1=C(n2cc(Br)cn2)C1` [Compound 11, 2-(1-(4-Bromopyrazole))-1-ethylcyclopropene], the “Gas @ 10 ppm: visual rating” value was 2. In the case of `C1=C(CCCCCCCn2ccnc2)C1` [Compound 12, 7-(1-Imidazole)-1-heptylcyclopropene], the “Gas @ 10 ppm: visual rating” value is reported as 5.5. `C1=C(CCCCCCCN(c2ccccc2)c2ccccc2)C1` [Compound 13, 7-(diphenylamino)-1-heptylcyclopropene] was tested, and the “Gas @ 10 ppm: visual rating” value was 0. `COc1ccc(OCC2(C)C=C2)cc1` [Compound 16] was tested, and the “Gas @ 10 ppm: visual rating” value was 3.75. In the case of `C1=C(Cc2ccccc2)C1` [Compound 17], the “Gas @ 10 ppm: visual rating” value is reported as 9. In the case of `C1=C(CCc2ccccc2)C1` [Compound 18], the “Gas @ 10 ppm: visual rating” value is reported as 10. With `CC1(CCc2ccccc2)C=C1` [Compound 19] the “Gas @ 10 ppm: visual rating” value was 2. `CC1(Cc2ccccc2)C=C1` [Compound 20] was tested, and the “Gas @ 10 ppm: visual rating” value was 0. `C1=C(CCC2CCCCC2)C1` [Compound 21] was tested, and the “Gas @ 10 ppm: visual rating” value was 10. With `C1=C(CC2CCCCCC2)C1` [Compound 22] the “Gas @ 10 ppm: visual rating” value was 9. In the case of `C1=C(CC2CCCCC2)C1` [Compound 23], the “Gas @ 10 ppm: visual rating” value is reported as 10. With `Cc1ccc(CC2=CC2)cc1` [Compound 24] the “Gas @ 10 ppm: visual rating” value was 10. `C1=C(CCCc2ccccc2)C1` [Compound 25] was tested, and the “Gas @ 10 ppm: visual rating” value was 10. In the case of `COc1ccccc1CC1=CC1` [Compound 26], the “Gas @ 10 ppm: visual rating” value is reported as 10. With `C1=C(CCCCc2ccccc2)C1` [Compound 27] the “Gas @ 10 ppm: visual rating” value was 10. `Clc1ccc(CCC2=CC2)cc1` [Compound 28] was tested, and the “Gas @ 10 ppm: visual rating” value was 9.5. For `Cc1cccc(CC2=CC2)c1` [Compound 29], the “Gas @ 10 ppm: visual rating” value was 10. With `O=C(OCCC1=CC1)c1ccoc1` [Compound 48] the “Gas @ 10 ppm: visual rating” value was 10. In the case of `CC1=C([Si](C)(C)C)C1(C)C` [Compound 79, 1-Trimethylsilyl-2,3,3-trimethylcyclopropene], the “Gas @ 10 ppm: visual rating” value is reported as 10.

Same assay, conditions: gas 500 ppm; scale 0 to 10
`COc1ccc(OCC2(C)C=C2)cc1` [Compound 16] was tested, and the “Gas @ 500 ppm: rating of protection against epinasty” value was 10^c^.

Same assay, conditions: gas 600 ppm (footnote a); scale 0 to 10
With `CCC1=C(n2cc(Br)cn2)C1` [Compound 11, 2-(1-(4-Bromopyrazole))-1-ethylcyclopropene] the “Gas, tested at 600 ppm: rating of protection against epinasty” value was 8^a.

Same assay, conditions: gas 850 ppm (footnote b or in cell); scale 0 to 10
With `C1=C(CCCCCCCn2ccnc2)C1` [Compound 12, 7-(1-Imidazole)-1-heptylcyclopropene] the “Gas, tested at 850 ppm: rating of protection against epinasty” value was 10^b.

Same assay, conditions: gas 1000 ppm v/v; 10 ppm ethylene after 4 h, scored 16 h later; scale 0 (no protection) to 10 (complete protection)
`CC1(c2ccccc2)C=C1` [Compound 6, 3-Methyl-3-phenylcyclopropene] was tested, and the “Gas @ 1000 ppm: visual rating of protection against ethylene-induced epinasty” value (shortened to “Gas @ 1000 ppm: visual rating”) was 7. With `CC1(COc2ccccc2)C=C1` [Compound 7, 3-Methyl-3-Phenoxymethylcycloprop-2-ene] the “Gas @ 1000 ppm: visual rating” value was 10. `CC1=C(Cc2ccccc2)C1` [Compound 8, 1-methyl-2-benzylcyclopropene] was tested, and the “Gas @ 1000 ppm: visual rating” value was 10. For `CC1(CCc2ccccc2)C=C1` [Compound 19], the “Gas @ 1000 ppm: visual rating” value was 7.5. With `CC1(Cc2ccccc2)C=C1` [Compound 20] the “Gas @ 1000 ppm: visual rating” value was 7.
